Assay results: publication PMC10486429, “Investigations Using Albumin Binders to Modify the Tissue Distribution Profile of Radiopharmaceuticals Exemplified with Folate Radioconjugates” (Cancers, 2023)
One block for each compound: values may come before it.

System: KB tumor-bearing athymic nude mice
Assay: Biodistribution of 177Lu-RedFols in KB tumor-bearing mice
Type: in vivo, mouse
Description: Athymic nude mice (Crl:CD1-Foxn^nu) were kept on a folate-deficient rodent diet (ssniff Spezialdiäten GmbH, Soest, Germany) for at least one week prior to inoculation with the tumor cells. Biodistribution studies were performed approx. two weeks after subcutaneous inoculation with KB tumor cells (5 × 10^6 in 100 μL PBS) (Supplementary Materials Section S12). […] Data were presented as the average ± SD of n = 3−4 mice.
Purpose: Biodistribution studies were performed in KB tumor-bearing athymic nude mice (Crl:CD1-Foxnnu) in order to investigate the tissue distribution profiles of the novel radioconjugates. The aim was to compare the impact of the two different albumin binders (4-(p-iodophenyl)butanoate unit vs. 5-(p-iodophenyl)pentanoate unit), and that of the in-corporation of an AMBA linker adjacent to the albumin binder on the distribution profile of the resulting folate radioconjugates.
Methods: The methods are described in the main article. The mice were sacrificed at […]

SMILES: CN1c2c(nc(N)[nH]c2=O)NCC1CNc1ccc(C(=O)NC(CCC(=O)NC(CCCCNC(=O)CN2CCN(CC(=O)[O-])CCN(CC(=O)[O-])CCN(CC(=O)[O-])CC2)C(=O)NC(CCCCNC(=O)c2ccc(CNC(=O)CCCc3ccc(I)cc3)cc2)C(=O)O)C(=O)O)cc1.[177Lu+3] (stereo not drawn) [[^177Lu]Lu-6S-RedFol-3]
- Blood, accumulated activity (1 h p.i.): 22 ± 1 % IA/g
- Bone, accumulated activity (1 h p.i.): 1.9 ± 0.1 % IA/g
- Intestines, accumulated activity (1 h p.i.): 2.3 ± 0.8 % IA/g
- KB tumor, accumulated activity (1 h p.i.): 7.9 ± 1.2 % IA/g
- Kidneys, accumulated activity (1 h p.i.): 12 ± 1 % IA/g
- Liver, accumulated activity (1 h p.i.): 3.7 ± 0.2 % IA/g
- Lung, accumulated activity (1 h p.i.): 9.3 ± 1.7 % IA/g
- Muscle, accumulated activity (1 h p.i.): 1.4 ± 0.1 % IA/g
- Salivary glands, accumulated activity (1 h p.i.): 4.1 ± 0.3 % IA/g
- Spleen, accumulated activity (1 h p.i.): 2.4 ± 0.2 % IA/g
- Stomach, accumulated activity (1 h p.i.): 1.8 ± 0.2 % IA/g
- Tumor-to-blood ratio (1 h p.i.): 0.36 ± 0.06
- Tumor-to-kidney ratio (1 h p.i.): 0.66 ± 0.09
- Tumor-to-liver ratio (1 h p.i.): 2.1 ± 0.4
- Blood, accumulated activity (4 h p.i.): 14 ± 1 % IA/g
- Bone, accumulated activity (4 h p.i.): 1.8 ± 0.1 % IA/g
- Intestines, accumulated activity (4 h p.i.): 1.7 ± 0.4 % IA/g
- KB tumor, accumulated activity (4 h p.i.): 16 ± 1 % IA/g
- Kidneys, accumulated activity (4 h p.i.): 11 ± 2 % IA/g
- Liver, accumulated activity (4 h p.i.): 2.4 ± 0.2 % IA/g
- Lung, accumulated activity (4 h p.i.): 7.7 ± 2.6 % IA/g
- Muscle, accumulated activity (4 h p.i.): 1.2 ± 0.2 % IA/g
- Salivary glands, accumulated activity (4 h p.i.): 2.8 ± 0.4 % IA/g
- Spleen, accumulated activity (4 h p.i.): 1.7 ± 0.2 % IA/g
- Stomach, accumulated activity (4 h p.i.): 1.3 ± 0.1 % IA/g
- Tumor-to-blood ratio (4 h p.i.): 1.1 ± 0.1
- Tumor-to-kidney ratio (4 h p.i.): 1.4 ± 0.2
- Tumor-to-liver ratio (4 h p.i.): 6.5 ± 0.2
- Blood, accumulated activity (24 h p.i.): 8.7 ± 1.1 % IA/g
- Bone, accumulated activity (24 h p.i.): 1.2 ± 0.2 % IA/g
- Intestines, accumulated activity (24 h p.i.): 1.0 ± 0.1 % IA/g
- KB tumor, accumulated activity (24 h p.i.): 41 ± 2 % IA/g
- Kidneys, accumulated activity (24 h p.i.): 30 ± 1 % IA/g
- Liver, accumulated activity (24 h p.i.): 1.8 ± 0.4 % IA/g
- Lung, accumulated activity (24 h p.i.): 4.8 ± 0.7 % IA/g
- Muscle, accumulated activity (24 h p.i.): 1.0 ± 0.2 % IA/g
- Salivary glands, accumulated activity (24 h p.i.): 2.3 ± 0.4 % IA/g
- Spleen, accumulated activity (24 h p.i.): 2.3 ± 0.1 % IA/g
- Stomach, accumulated activity (24 h p.i.): 1.1 ± 0.1 % IA/g
- Tumor-to-blood ratio (24 h p.i.): 4.7 ± 0.3
- Tumor-to-kidney ratio (24 h p.i.): 1.3 ± 0.1
- Tumor-to-liver ratio (24 h p.i.): 24 ± 4

- Blood, accumulated activity (1 h p.i.): 9.0 ± 1.2 % IA/g
- Bone, accumulated activity (1 h p.i.): 1.2 ± 0.1 % IA/g
- Intestines, accumulated activity (1 h p.i.): 1.2 ± 0.3 % IA/g
- KB tumor, accumulated activity (1 h p.i.): 17 ± 2 % IA/g
- Kidneys, accumulated activity (1 h p.i.): 36 ± 4 % IA/g
- Liver, accumulated activity (1 h p.i.): 2.6 ± 0.7 % IA/g
- Lung, accumulated activity (1 h p.i.): 4.6 ± 0.3 % IA/g
- Muscle, accumulated activity (1 h p.i.): 1.4 ± 0.1 % IA/g
- Salivary glands, accumulated activity (1 h p.i.): 6.4 ± 0.1 % IA/g
- Spleen, accumulated activity (1 h p.i.): 1.3 ± 0.2 % IA/g
- Stomach, accumulated activity (1 h p.i.): 1.5 ± 0.1 % IA/g
- Tumor-to-blood ratio (1 h p.i.): 2.0 ± 0.4
- Tumor-to-kidney ratio (1 h p.i.): 0.48 ± 0.02
- Tumor-to-liver ratio (1 h p.i.): 6.9 ± 1.6
- Blood, accumulated activity (4 h p.i.): 3.2 ± 1.8 % IA/g
- Bone, accumulated activity (4 h p.i.): 0.87 ± 0.21 % IA/g
- Intestines, accumulated activity (4 h p.i.): 0.83 ± 0.37 % IA/g
- KB tumor, accumulated activity (4 h p.i.): 34 ± 6 % IA/g
- Kidneys, accumulated activity (4 h p.i.): 57 ± 5 % IA/g
- Liver, accumulated activity (4 h p.i.): 1.9 ± 0.4 % IA/g
- Lung, accumulated activity (4 h p.i.): 2.4 ± 1.1 % IA/g
- Muscle, accumulated activity (4 h p.i.): 1.3 ± 0.2 % IA/g
- Salivary glands, accumulated activity (4 h p.i.): 8.7 ± 0.9 % IA/g
- Spleen, accumulated activity (4 h p.i.): 0.83 ± 0.25 % IA/g
- Stomach, accumulated activity (4 h p.i.): 1.4 ± 0.5 % IA/g
- Tumor-to-blood ratio (4 h p.i.): 12 ± 5
- Tumor-to-kidney ratio (4 h p.i.): 0.59 ± 0.04
- Tumor-to-liver ratio (4 h p.i.): 18 ± 3
- Blood, accumulated activity (24 h p.i.): 0.06 ± 0.01 % IA/g
- Bone, accumulated activity (24 h p.i.): 0.49 ± 0.09 % IA/g
- Intestines, accumulated activity (24 h p.i.): 0.28 ± 0.11 % IA/g
- KB tumor, accumulated activity (24 h p.i.): 33 ± 2 % IA/g
- Kidneys, accumulated activity (24 h p.i.): 62 ± 11 % IA/g
- Liver, accumulated activity (24 h p.i.): 1.2 ± 0.2 % IA/g
- Lung, accumulated activity (24 h p.i.): 0.60 ± 0.07 % IA/g
- Muscle, accumulated activity (24 h p.i.): 0.75 ± 0.20 % IA/g
- Salivary glands, accumulated activity (24 h p.i.): 4.5 ± 0.8 % IA/g
- Spleen, accumulated activity (24 h p.i.): 0.51 ± 0.13 % IA/g
- Stomach, accumulated activity (24 h p.i.): 0.54 ± 0.12 % IA/g
- Tumor-to-blood ratio (24 h p.i.): 583 ± 105
- Tumor-to-kidney ratio (24 h p.i.): 0.54 ± 0.07
- Tumor-to-liver ratio (24 h p.i.): 28 ± 7
SMILES: CN1c2c(nc(N)[nH]c2=O)NC[C@H]1CNc1ccc(C(=O)N[C@@H](CCC(=O)N[C@@H](CCCCNC(=O)CN2CCN(CC(=O)O)CCN(CC(=O)O)CCN(CC(=O)O)CC2)C(=O)N[C@@H](CCCCNC(=O)CCCCc2ccc(I)cc2)C(=O)O)C(=O)O)cc1 [[^177Lu]Lu-6R-RedFol-24, metal not drawn]
